Results as given in patent publication US20260132103A1, “Bumetanide Derivatives for the Therapy of Stroke and Other Neurological Diseases/Disorders Involving NKCCs” (University of Pittsburgh - Of the Commonwealth System of …, priority 2018, published 2026).

Legend:
[1] = target: T1, pNKCC1 and tNKCC1 proteins (Mus musculus, UniProt P55012); test: Immunoblotting of pNKCC1 and tNKCC1; format: cell-based; conditions: GL26 and SB28-GFP cells, 6 h; BMT 10 μM, STS66 10 μM, TMZ 100 μM or combined
T1 construct: cell lysates were harvested for immunoblotting of pNKCC1 and tNKCC1 proteins; endogenous in cells; host or cells: GL26 and SB28-GFP mouse glioma cells
T1 sequence (P55012 1-1205): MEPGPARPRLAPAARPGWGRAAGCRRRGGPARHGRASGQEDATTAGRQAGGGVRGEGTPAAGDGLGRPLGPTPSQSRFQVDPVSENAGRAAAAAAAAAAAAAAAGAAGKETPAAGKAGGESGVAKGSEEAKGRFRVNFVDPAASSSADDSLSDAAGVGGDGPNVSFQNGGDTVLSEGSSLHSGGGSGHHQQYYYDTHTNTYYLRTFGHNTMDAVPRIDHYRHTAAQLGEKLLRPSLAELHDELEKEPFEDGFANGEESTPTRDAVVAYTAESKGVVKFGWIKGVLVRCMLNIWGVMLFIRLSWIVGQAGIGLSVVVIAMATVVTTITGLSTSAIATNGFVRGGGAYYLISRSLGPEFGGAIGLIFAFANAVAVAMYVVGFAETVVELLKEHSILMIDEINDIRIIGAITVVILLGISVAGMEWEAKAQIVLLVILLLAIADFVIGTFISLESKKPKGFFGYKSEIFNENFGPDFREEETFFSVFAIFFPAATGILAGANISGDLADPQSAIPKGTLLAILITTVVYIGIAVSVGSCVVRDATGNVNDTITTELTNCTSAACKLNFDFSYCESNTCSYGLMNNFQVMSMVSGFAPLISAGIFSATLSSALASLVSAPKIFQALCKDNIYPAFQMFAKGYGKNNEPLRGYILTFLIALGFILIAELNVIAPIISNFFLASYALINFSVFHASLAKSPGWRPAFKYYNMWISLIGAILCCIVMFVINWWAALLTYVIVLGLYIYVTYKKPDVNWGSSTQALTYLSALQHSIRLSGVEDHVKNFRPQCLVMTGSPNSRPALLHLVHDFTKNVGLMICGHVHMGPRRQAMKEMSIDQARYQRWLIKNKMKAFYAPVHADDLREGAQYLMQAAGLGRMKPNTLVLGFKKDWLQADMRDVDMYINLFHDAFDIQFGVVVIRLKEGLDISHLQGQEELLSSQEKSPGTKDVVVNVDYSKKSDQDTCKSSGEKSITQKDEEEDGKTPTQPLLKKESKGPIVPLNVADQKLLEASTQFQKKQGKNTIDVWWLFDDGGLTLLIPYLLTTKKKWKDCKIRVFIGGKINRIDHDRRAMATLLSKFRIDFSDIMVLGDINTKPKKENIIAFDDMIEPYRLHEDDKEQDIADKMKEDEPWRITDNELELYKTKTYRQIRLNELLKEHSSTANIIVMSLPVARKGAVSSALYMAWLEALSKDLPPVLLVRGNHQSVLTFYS
Experimental: FIGS. 6A-6B: GL26 and SB28-GFP cells were exposed to BMT (10 μM), STS66 (10 μM), TMZ (100 μM) or combined for 6 h and cell lysates were harvested for immunoblotting of pNKCC1 and tNKCC1 proteins. Data are means±SEM from six independent experiments. *P<0.05, **P<0.01, ***P<0.001.
GL26 and SB28-GFP cells were washed with ice-cold PBS and incubated in RIPA buffer containing 1 pill of phosSTOP and 2 mM protease inhibitors as described before (Algharabli et al. 2012). Cells were lysed by sonication at 4° C. Protein content of the cellular lysate was determined with BCA Protein Assay Kit. Samples and sample buffer (Thermo Scientific, Rockford, IL, USA) were boiled at 95° C. for 5 min. The samples were then electrophoretically separated on 10% SDS gels. After transferring to PVDF membranes, the blots were blocked in 10% nonfat dry milk in TBS-T (Tris-buffered saline, 0.05% Tween-20) for 1 hour at room temperature and then incubated with appropriate primary antibodies (pNKCC1, 1:300 and tNKCC1, 1:3000) at 4° C. overnight. After rinsing with TBS-T, the blots were incubated with horseradish peroxidase-conjugated secondary IgG (1:2000) for 1 hr at RT. Bound antibody was visualized with an enhanced chemiluminescence assay. Protein band signal intensities were analyzed using ImageJ and normalized to α-tubulin expression.

[2] = system: GL26 and SB28-GFP cells; test: BrdU proliferation assay; format: cell-based, mouse; conditions: 48 h drug treatment, compared to BMT
Experimental: FIG. 7: BrdU incorporation of GL26 cells and SB28-GFP cells following 48 h drug treatment. Data are means±SEM from three independent experiments. **P<0.01, ***p<0.001, ****p<0.0001.
Cell proliferation of GL26 and SB28-GFP cells was measured by quantifying BrdU incorporation. GL26 cells (5×10^3 cells/well) or SB28-GFP cells (1×10^3 cells/well) were seeded in 96-well plates in 100 μL media. After 24 hours in culture, cells were incubated with fresh medium plus the following reagents: DMSO vehicle (Con-Veh), BMT (B, 10 μM), TMZ (100 μM), or TMZ+B for 48 h. BrdU was added in the last 4 h period of the whole 48 h incubation. The incorporation of BrdU into newly synthesized DNA of proliferating cells was detected by using a peroxidase-conjugated antibody which reacts with the thymidine analogue BrdU. Bound anti-BrdU-peroxidase conjugated antibody was measured by a substrate reaction, and then quantified colorimetrically by an ELISA plate reader (Spectra MAX 190, Molecular Devices, Sunnyvale, CA) at dual wavelength of 450/550 nm.

CCCCNc1cc(CNCC(F)(F)F)cc(S(N)(=O)=O)c1Oc1ccccc1 [STS66, 3-(Butylamino)-2-phenoxy-5-[(2,2,2-trifluoroethylamino)methyl]benzenesulfonamide]
pNKCC1 and tNKCC1 expression [1]: did not show significant decrease
inhibition of cell proliferation (BrdU incorporation) [2]: more inhibition of GL26 and SB28-GFP cell proliferation than BMT
